The source of these data is patent publication US12371454B2, “Cyclic peptide compound having Kras inhibitory action” (priority 2019, dated 2025).

Starred links: 1 amine or outer side, 2 acyl side, 3 side chain; linkers in the order of their positions; H or OH if unused. Positions of bridges follow the written chain, without caps; N, C: chain ends. Non-standard residues stand in square brackets, D forms with d. Residues, ends and D or L forms follow the SMILES beside them. *: point of attachment. hPhe(3-Cl-4-CF3) = N[C@@H](CCc1ccc(C(F)(F)F)c(Cl)c1)C(=O)O; NMePhe(4-CF3) = CN[C@@H](Cc1ccc(C(F)(F)F)cc1)C(=O)O; hPhe(4-CF3) = N[C@@H](CCc1ccc(C(F)(F)F)cc1)C(=O)O; NMePhe(3-CN) = CN[C@@H](Cc1cccc(C#N)c1)C(=O)O; NMeAbu(4,4,4-F3) = CN[C@@H](CC(F)(F)F)C(=O)O; NMePhe(4-Cl) = CN[C@@H](Cc1ccc(Cl)cc1)C(=O)O; X4 = O=C([C@H](Cc1cc(F)cc(Cl)c1)N[*:1])[*:2]; NMePhe(4-Me) = CN[C@@H](Cc1ccc(C)cc1)C(=O)O; NMedβ3hAla = C[C@H](CC(=O)[*:2])N(C)[*:1]; Leu(4,5-dehydro) = C=C(C)C[C@H](N)C(=O)O; NMeGly(cPent) = CN[C@H](C(=O)O)C1CCCC1; Phe(3-I) = N[C@@H](Cc1cccc(I)c1)C(=O)O; Pro(4,4-F2) = O=C(O)[C@@H]1CC(F)(F)CN1; Hyp = O=C(O)[C@@H]1C[C@@H](O)CN1; NMeChg = CN[C@H](C(=O)O)C1CCCCC1; NMeF = CN[C@@H](Cc1ccccc1)C(=O)O; NMeD = CN[C@@H](CC(=O)O)C(=O)O; NMeL = CN[C@@H](CC(C)C)C(=O)O; NMeV = CN[C@H](C(=O)O)C(C)C; d(β3hA) = C[C@@H](N)CC(=O)O; Pip = O=C(O)[C@@H]1CCCCN1; Morpholide = C1CN(*)CCO1; NMeA = CN[C@@H](C)C(=O)O; NMeAib = CNC(C)(C)C(=O)O; Piperidide = C1CCN(*)CC1; Pyrrolidide = C1CCN(*)C1; dNMeA = CN[C@H](C)C(=O)O; Ac5c = NC1(C(=O)O)CCCC1; Aze = O=C(O)[C@@H]1CCN1; Ac4c = NC1(C(=O)O)CCC1; Sar = CNCC(=O)O

In this experiment the target is T1, Kras and SOS1 (biotin-tagged human Kras loaded with GDP, His-tagged human SOS1) (Homo sapiens, UniProt P01116, G12D).
T1 construct: made in house; host or cells: E. coli (stated for Kras only)
T1 sequence (P01116 1-188 isoform P01116-2 G12D): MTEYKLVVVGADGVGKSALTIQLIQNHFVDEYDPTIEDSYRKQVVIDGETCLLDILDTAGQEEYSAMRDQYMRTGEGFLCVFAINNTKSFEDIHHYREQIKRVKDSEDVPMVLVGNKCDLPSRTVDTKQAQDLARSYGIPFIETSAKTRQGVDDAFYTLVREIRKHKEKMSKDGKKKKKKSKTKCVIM
The experiment is described as follows: Protein-protein interaction inhibition between Kras and SOS1 (KrasGl2D-SOS PPI) using AlphaScreen. Type of experiment: binding. The note with it: AlphaScreen; biotin-tagged human Kras loaded with GDP, His-tagged human SOS1; read-out: KRAS G12D-SOS PPI IC50. A digest of the protocol:
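Binding between SOS1 and Kras is detected as bead-proximity luminescence: illuminate Ni-conjugated donors (680 nm), collect 520-620 nm emission from streptavidin-conjugated acceptors; Kras carries biotin and GDP loaded after purification, SOS1 carries a His tag.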
Regarding `CC[C@H](C)[C@@H]1NC(=O)[C@@H]2CCCCN2C(=O)C[C@@H](C)NC(=O)[C@H](CC(C)C)N(C)C(=O)C2(CCCC2)NC(=O)[C@H](CC(C)C)N(C)C(=O)[C@H](CCc2ccc(C(F)(F)F)cc2)NC(=O)CN(C)C(=O)[C@H](Cc2ccc(Cl)cc2)N(C)C(=O)CN(C)C(=O)CN(C)C1=O` [Compound 847] (cyclo([Ac5c][NMeL][d(β3hA)][Pip]I[Sar][Sar][NMePhe(4-Cl)][Sar][hPhe(4-CF3)][NMeL])), the half-maximal inhibitory concentration (IC50) was 54 nM.

Take `CC[C@H](C)[C@@H]1NC(=O)[C@H](CC(C)C)N(C)C(=O)C[C@@H](C)NC(=O)[C@H](C(C)C)N(C)C(=O)C2(CCCC2)NC(=O)[C@@H]2CCCN2C(=O)[C@H](CCc2ccc(C(F)(F)F)c(Cl)c2)NC(=O)CN(C)C(=O)[C@H](Cc2cccc(C#N)c2)N(C)C(=O)CN(C)C(=O)CN(C)C1=O` [Compound 975] (cyclo([Ac5c][NMeV][d(β3hA)][NMeL]I[Sar][Sar][NMePhe(3-CN)][Sar][hPhe(3-Cl-4-CF3)]P)): the IC50 is 22 nM.

Consider `CC[C@H](C)[C@@H]1NC(=O)[C@H](C)N(C)C(=O)C[C@@H](C)NC(=O)[C@H](C2CCCC2)N(C)C(=O)C2(CCCC2)NC(=O)[C@@H]2CCCN2C(=O)[C@H](CCc2ccc(C(F)(F)F)c(Cl)c2)NC(=O)[C@@H](C)N(C)C(=O)[C@H](C)N(C)C(=O)[C@@H]2CCN2C(=O)[C@H](C)N(C)C1=O` [Compound 396] (cyclo([Ac5c][NMeGly(cPent)][d(β3hA)][NMeA]I[NMeA][Aze][NMeA][dNMeA][hPhe(3-Cl-4-CF3)]P)), for which the IC50 was found to be 220 nM.

Take `CC[C@H](C)[C@@H]1NC(=O)[C@H](CC(F)(F)F)N(C)C(=O)C[C@@H](C(=O)N2CCOCC2)N(C)C(=O)[C@H](C2CCCCC2)N(C)C(=O)C2(CCCC2)NC(=O)[C@@H]2CC(F)(F)CN2C(=O)[C@H](CCc2ccc(C(F)(F)F)c(Cl)c2)NC(=O)CN(C)C(=O)[C@H](Cc2ccc(C(F)(F)F)cc2)N(C)C(=O)CN(C)C(=O)CN(C)C1=O` [Compound 1182] ([NMeAbu(4,4,4-F3)]I[Sar][Sar][NMePhe(4-CF3)][Sar][hPhe(3-Cl-4-CF3)][Pro(4,4-F2)][Ac5c][NMeChg][NMeD]-Morpholide; lactam N-11): the IC50 came out at 0.56 nM.

Regarding `CCO[C@@H]1C[C@H]2C(=O)NC3(CCC3)C(=O)N(C)[C@@H](C3CCCCC3)C(=O)N(C)[C@H](C)CC(=O)N(C)[C@@H](CC(C)C)C(=O)N[C@@H]([C@@H](C)CC)C(=O)N(C)[C@@H](C)C(=O)N3CC[C@H]3C(=O)N(C)[C@@H](Cc3ccc(C(F)(F)F)cc3)C(=O)N(C)CC(=O)N[C@@H](CCc3ccc(C(F)(F)F)c(Cl)c3)C(=O)N2C1` [Compound 698] (cyclo([Ac4c][NMeChg][NMedβ3hAla][NMeL]I[NMeA][Aze][NMePhe(4-CF3)][Sar][hPhe(3-Cl-4-CF3)][Hyp](Et))), the IC50 turned out to be 23 nM.

For `CC[C@H](C)[C@@H]1NC(=O)[C@H](C(C)C)N(C)C(=O)C[C@@H](C)NC(=O)[C@H](CC(C)C)N(C)C(=O)C2(CCCC2)NC(=O)[C@H](CC(C)C)N(C)C(=O)[C@H](CCc2ccc(C(F)(F)F)c(Cl)c2)NC(=O)CN(C)C(=O)[C@H](Cc2ccc(Cl)cc2)N(C)C(=O)[C@@H]2CCN2C(=O)CN(C)C1=O` [Compound 158] (cyclo([Ac5c][NMeL][d(β3hA)][NMeV]I[Sar][Aze][NMePhe(4-Cl)][Sar][hPhe(3-Cl-4-CF3)][NMeL])), the IC50 came to 10 nM.

As for `C=C(C)C[C@@H]1NC(=O)[C@H](Cc2cccc(I)c2)NC(=O)CN(C)C(=O)[C@H](Cc2ccc(Cl)cc2)N(C)C(=O)[C@@H]2CCN2C(=O)[C@H](C)N(C)C(=O)[C@H]([C@@H](C)CC)NC(=O)[C@H](CC(C)C)N(C)C(=O)C[C@@H](C(=O)N2CCCCC2)N(C)C(=O)[C@H](CC(C)C)NC(=O)C(C)(C)N(C)C1=O` [Compound 1429] ([NMeL]I[NMeA][Aze][NMePhe(4-Cl)][Sar][Phe(3-I)][Leu(4,5-dehydro)][NMeAib]L[NMeD]-Piperidide; lactam N-11), the IC50 was found to be 44 nM.

Take `CC[C@H](C)[C@@H]1NC(=O)[C@H](CC(C)C)N(C)C(=O)C[C@@H](C(=O)N2CCCCC2)N(C)C(=O)[C@H](CC(C)C)NC(=O)[C@H](Cc2ccccc2)N(C)C(=O)[C@H](C)NC(=O)[C@H](Cc2cccc(I)c2)NC(=O)CN(C)C(=O)[C@H](Cc2ccc(C)cc2)N(C)C(=O)CN(C)C(=O)CN(C)C1=O` [Compound 619] ([NMeL]I[Sar][Sar][NMePhe(4-Me)][Sar][Phe(3-I)]A[NMeF]L[NMeD]-Piperidide; lactam N-11): the IC50 stood at 19 nM.

For the compound `CC[C@H](C)[C@@H]1NC(=O)[C@H](C)N(C)C(=O)C[C@@H](C(=O)N2CCCC2)NC(=O)[C@H](CC(C)C)N(C)C(=O)[C@H](Cc2ccccc2)N(C)C(=O)[C@H](CC(C)C)NC(=O)[C@H](Cc2cc(F)cc(Cl)c2)NC(=O)CN(C)C(=O)[C@H](Cc2ccc(Cl)cc2)N(C)C(=O)CN(C)C(=O)CN(C)C1=O` [Compound 657] ([NMeA]I[Sar][Sar][NMePhe(4-Cl)][Sar][X4]L[NMeF][NMeL]D-Pyrrolidide; lactam N-11), the IC50 stood at 310 nM.

The IC50 is the point on the concentration scale where inhibition reaches its midpoint.
